Experimental data as given in patent publication US20180267043A1, “USE OF BIOMARKERS FOR PREDICTING CLINICAL SENSITIVITY TO CANCER TREATMENT” (CELGENE CORPORATION, priority 2014, published 2018).

How the values were obtained:
XBP1 and ATF6 pathways = assay: RNA level of XBP1 and ATF6 pathway components in DF15 MM cells; assay type: cell-based, human; settings: DF15, 20 nM, 5, 10, or 23 hours
Procedure: The mechanism of Compound C-activated XBP1 and ATF6 pathways was studied in DF15 MM cells. Cells were treated with DMSO or 20 nM Compound C for 5, 10, or 23 hours. The RNA level of variant cellular components along the XBP1 and ATF6 pathways was measured and normalized with GAPDH.

GSPT1 = target: T1, GSPT1 (Homo sapiens, UniProt P15170); assay: GSPT1 expression level in HEK 293FT cells after compound treatment; assay type: cell-based; settings: CRBN+/+ cells, 10 hours, 100 nM or 1000 nM, compared to CRBN−/− cells
T1 construct: endogenous in cells; host or cells: HEK 293FT cells (CRBN+/+)
T1 sequence (P15170 whole entry): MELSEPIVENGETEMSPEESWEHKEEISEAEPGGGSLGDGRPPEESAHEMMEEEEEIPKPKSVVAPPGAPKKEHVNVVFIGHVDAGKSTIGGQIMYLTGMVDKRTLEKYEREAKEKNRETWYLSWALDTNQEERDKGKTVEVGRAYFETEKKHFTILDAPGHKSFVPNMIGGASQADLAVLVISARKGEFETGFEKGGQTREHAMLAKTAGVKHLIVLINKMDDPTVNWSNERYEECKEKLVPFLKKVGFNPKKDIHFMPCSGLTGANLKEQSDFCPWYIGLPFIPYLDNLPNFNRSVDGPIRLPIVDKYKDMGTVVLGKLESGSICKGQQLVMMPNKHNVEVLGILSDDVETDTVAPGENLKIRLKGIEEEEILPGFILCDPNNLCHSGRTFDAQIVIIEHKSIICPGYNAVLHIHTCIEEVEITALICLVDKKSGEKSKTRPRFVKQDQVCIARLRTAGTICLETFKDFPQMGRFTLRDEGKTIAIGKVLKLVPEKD
T1 sequence (Q96SW2 whole entry, further chain): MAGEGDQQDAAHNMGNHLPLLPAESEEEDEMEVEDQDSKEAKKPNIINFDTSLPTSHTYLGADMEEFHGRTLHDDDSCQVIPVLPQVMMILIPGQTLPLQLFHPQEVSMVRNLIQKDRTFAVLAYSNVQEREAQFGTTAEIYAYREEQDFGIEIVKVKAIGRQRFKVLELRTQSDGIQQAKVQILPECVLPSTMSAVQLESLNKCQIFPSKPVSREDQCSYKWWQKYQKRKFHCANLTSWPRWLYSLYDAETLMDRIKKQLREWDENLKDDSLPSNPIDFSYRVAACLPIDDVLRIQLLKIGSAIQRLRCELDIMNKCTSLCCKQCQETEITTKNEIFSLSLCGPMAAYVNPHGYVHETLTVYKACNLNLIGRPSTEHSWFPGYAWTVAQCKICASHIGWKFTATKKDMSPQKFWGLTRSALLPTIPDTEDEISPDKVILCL
T1 sequence (Q16531 whole entry partner): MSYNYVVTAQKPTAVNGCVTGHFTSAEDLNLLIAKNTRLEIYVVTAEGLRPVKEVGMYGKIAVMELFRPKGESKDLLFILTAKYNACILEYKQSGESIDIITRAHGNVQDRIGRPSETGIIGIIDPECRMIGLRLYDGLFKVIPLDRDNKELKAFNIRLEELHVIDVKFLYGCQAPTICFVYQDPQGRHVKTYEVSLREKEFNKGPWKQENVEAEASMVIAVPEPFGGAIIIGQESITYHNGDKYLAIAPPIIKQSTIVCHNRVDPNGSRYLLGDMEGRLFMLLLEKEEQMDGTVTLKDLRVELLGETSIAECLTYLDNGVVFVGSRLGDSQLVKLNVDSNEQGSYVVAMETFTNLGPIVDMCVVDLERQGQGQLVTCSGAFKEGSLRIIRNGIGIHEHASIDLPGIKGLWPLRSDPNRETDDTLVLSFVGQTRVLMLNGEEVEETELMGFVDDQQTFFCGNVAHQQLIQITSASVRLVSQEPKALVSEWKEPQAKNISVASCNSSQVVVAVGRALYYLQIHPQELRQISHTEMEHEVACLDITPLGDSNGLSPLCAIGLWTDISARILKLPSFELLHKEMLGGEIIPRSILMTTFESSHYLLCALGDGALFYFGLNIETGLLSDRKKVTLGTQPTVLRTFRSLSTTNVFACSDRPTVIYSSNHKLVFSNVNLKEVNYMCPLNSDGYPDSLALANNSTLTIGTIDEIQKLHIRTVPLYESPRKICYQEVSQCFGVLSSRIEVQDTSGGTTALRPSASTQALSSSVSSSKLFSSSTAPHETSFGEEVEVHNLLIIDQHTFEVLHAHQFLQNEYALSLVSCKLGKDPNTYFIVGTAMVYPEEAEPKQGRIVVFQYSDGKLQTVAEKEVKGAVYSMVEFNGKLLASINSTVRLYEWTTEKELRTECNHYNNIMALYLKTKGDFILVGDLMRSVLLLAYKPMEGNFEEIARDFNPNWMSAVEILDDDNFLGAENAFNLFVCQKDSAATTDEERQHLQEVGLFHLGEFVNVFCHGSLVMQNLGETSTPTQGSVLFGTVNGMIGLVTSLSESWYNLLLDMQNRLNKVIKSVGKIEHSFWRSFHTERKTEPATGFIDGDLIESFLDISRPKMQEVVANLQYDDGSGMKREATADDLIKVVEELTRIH

U937 = assay: CellTiter-Glo cell viability assay, U937; assay type: cell-based, human; settings: 48 hours
Procedure: The effect of overexpression of GSPT1 on the anti-proliferative effect of Compound C was determined in human histiocytic lymphoma cell line U937 and human leukemia cell line Molm13. Treatment compounds were titrated from 0.1 nM to 1 μM. Cell proliferation was measured by CellTiter-Glo cell viability assay at 48 hours after treatment.

[1] = test system: Aiolos, CK1a, GSPT1 in OCI-LY10; assay: Western blot analysis in lymphoma cell line OCI-LY10; assay type: cell-based; settings: OCI-LY10, 100 μM Compound C, 6 hours
From the text: Cells were harvested with RIPA buffer, and proteins from cell lysates were separated by 10% sodium dodecyl sulfate polyacrylamide (SDS-PAGE) gel electrophoresis (Bio-Rad), then transferred to PVDF membranes (Invitrogen). Immunoblots were probed with antibodies recognizing Aiolos (9-9-7; Celgene), CK1a (Abcam), GSPT1 (Sigma), ZFP91 (LSBio) and β-actin (Li-Cor). Signals were detected with a Li-Cor Odyssey imager.

GSPT1 and eRF1 [2] = assay: Immunoblotting of GSPT1 and eRF1 in 293FT HEK cells; assay type: cell-based, human; settings: CRBN−/− cells with CRBNiso2 or CRBNiso2 W385A mutant
Procedure: (§1) CRBN+/+(293FT parental) cells were treated in parallel with CRBN−/− (CRISPR) cells, CRBN−/− cells expressing CRBN isoform 2, and CRBN−/− cells expressing CRBN isoform 2 with a W385A mutation.

GSPT1 and eRF1 [3] = target: T2, GSPT1 and eRF1 (Homo sapiens, UniProt P15170+); assay: as above; assay type: cell-based
T2 construct: endogenous in cells; host or cells: 293FT HEK cells
Procedure: as §1

[4] = test system: KG1, DF15, AML3, and 293FT; assay: Sensitivity to compound-induced ER stress and apoptosis, KG1, DF15, AML3, 293FT; assay type: cell-based, human
Procedure: The GSPT1 dependency was shown by GSPT1-specific shRNA knockdown experiment. The GSPT1 degradation efficiency was shown by Western Blot. The induction of ATF3 or DDIT3 was measured by quantitative RT-PCR. […] Time needed for Compound C-induced ER stress or Compound C-induced apoptosis was summarized. […] High ER demand may contribute to the sensitivity of certain cancer cells to the treatment of Compound C.

PERK pathway of UPR = assay: RNA level of PERK pathway components in 293FT HEK cells; assay type: cell-based, human; settings: parental and control shRNA cells, 1 nM or 10 nM, 24 hours
Procedure: The mechanism of Compound C-induced Unfolded Protein Response (UPR) was studied in 293FT HEK cells. Parental cells, CRBN−/− cells, cells expressing control shRNA, or cells expressing GSPT1-specific shRNA were treated with DMSO, 1 nM, or 10 nM Compound C. The RNA level of variant cellular components along the PERK pathway of UPR was measured and normalized with GAPDH at 24 hours after treatment.

[5] = test system: GSPT1, BIP, ER stress or apoptosis pathways; assay: Expression level of ER stress and apoptosis components in 293FT HEK cells; assay type: cell-based, human; settings: 20 hours
Procedure: CRBN+/+ and CRBN−/− cells were treated with DMSO alone, 1 nM, or 10 nM Compound C. After 20 hours, the expression level of various cellular components along the endoplasmic reticulum (ER) stress or apoptosis pathways was measured. […] BIP is an ER luminal KDEL protein that requires binding with KDEL receptor in the cis-Golgi to be retro-transported into the ER lumen for retention. Loss of GSPT1 leads to the inactivation of the eRF1/GSPT1 complex and therefore allows translation readthrough of de novo sysnthesized proteins such as BIP. Addition of extra residues to the BIP C-terminus blocks the recognization of KDEL motif and BIP C-terminal epitopes by the KDEL receptor and BIP C-terminal antibodies, respectively. […] BIP interacts with the ER luminal domain of UPR sensors PERK, IRE1, and ATF6 to prevent their activation. Reduction of BIP C-terminal immunoreactivity indicates a mislocalization of BIP, which presumably leads to its dissociation from PERK, IRE1, and ATF6 and induces UPR.

[6] = test system: Human Acute Myeloblastic Leukemia Cell Line KG1; assay: Anti-proliferative effect after GSPT1 knockdown, KG1 (FIG. 12A); assay type: cell-based
[7] = target: T3, mouse CRBN isoform 2 (IKZF1/3, GSPT1/2 as substrates) (Mus musculus, UniProt Q8C7D2, V380E); assay: Substrate degradation in CRBN−/− cells expressing mouse CRBN isoform 2 or mutants; assay type: cell-based; settings: mouse CRBN isoform 2 V380E; 1 μM Compound C
T3 construct: expressed in transfected cells; host or cells: CRBN-/- cells (elsewhere: 293FT, CRISPR)
T3 sequence (Q8C7D2 whole entry V380E, canonical isoform): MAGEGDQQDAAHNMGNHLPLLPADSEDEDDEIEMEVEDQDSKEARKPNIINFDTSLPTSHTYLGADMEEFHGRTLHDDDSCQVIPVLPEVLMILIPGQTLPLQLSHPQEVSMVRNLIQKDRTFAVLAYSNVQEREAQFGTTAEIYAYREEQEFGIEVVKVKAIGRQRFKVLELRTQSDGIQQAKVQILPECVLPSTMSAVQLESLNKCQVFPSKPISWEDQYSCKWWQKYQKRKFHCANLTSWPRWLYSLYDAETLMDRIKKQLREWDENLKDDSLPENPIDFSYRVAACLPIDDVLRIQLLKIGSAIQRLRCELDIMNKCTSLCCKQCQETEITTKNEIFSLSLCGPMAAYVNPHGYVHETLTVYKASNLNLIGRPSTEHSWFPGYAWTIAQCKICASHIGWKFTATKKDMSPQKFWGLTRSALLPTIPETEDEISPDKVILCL
From the text: (§2) To test this hypothesis, specific mutations in the compound-binding domain of mouse CRBN isoform2 were generated, such as V380E and I391V. Wild type mouse CRBN isoform 2 or each mutant was introduced to CRBN−/− cells. […] Thus, in mouse CRBN isoform 2, V380E and I391V mutations are sufficient to trigger the degradation of IKZF1/3 and GSPT1/2, respectively.

[8] = target: T4, mouse CRBN isoform 2 (IKZF1/3, GSPT1/2 as substrates) (Mus musculus, UniProt Q8C7D2, I391V); assay: as above; assay type: cell-based; settings: mouse CRBN isoform 2 I391V; 10 μM lenalidomide or 1 μM Compound C
T4 construct: expressed in transfected cells; host or cells: CRBN-/- cells (elsewhere: 293FT, CRISPR)
T4 sequence (Q8C7D2 whole entry I391V, canonical isoform): as the sequence (Q8C7D2 whole entry V380E, canonical isoform) above, with E380V, I391V counted along it
From the text: as §2

## Cc1ccc(NC(=O)NCc2ccc3c(c2)CN(C2CCC(=O)NC2=O)C3=O)cc1Cl (stereo not shown) [Compound C, 1-(3-chloro-4-methylphenyl)-3-((2-(2,6-dioxopiperidin-3-yl)-1-oxoisoindolin-5-yl)methyl)urea]
XBP1 and ATF6 pathways
  RNA level of ATF6 pathway components (XBP1, EDEM1, HYOU1, HSPA5): induces expression
  RNA level of XBP1 pathway components (SEC24D, DNAJB9, XBP1, EDEM1, HYOU1): induces expression
GSPT1
  GSPT1 expression level: GSPT1 is degraded in CRBN+/+ cells
U937; U937, exogenous GSPT1 overproduced via EF1a promoter
  Anti-proliferative effect: the anti-proliferative effect of Compound C reduces
U937; U937 CRBN −/− cells
  Anti-proliferative effect: completely abolished
U937; U937 parental cells, 0.1 nM to 1 μM
  Cell proliferation: inhibits cell proliferation
[1]
  Aiolos and CK1a protein levels: also reduce
  GSPT1 protein level: reduces
GSPT1 and eRF1 [2]
  Degradation of GSPT1 and eRF1: restores Compound C-induced degradation of GSPT1 and eRF1
GSPT1 and eRF1 [3]; CRBN+/+ (293FT parental) cells
  Degradation of GSPT1 and eRF1: induces degradation of GSPT1 and eRF1 in CRBN+/+ cells
GSPT1 and eRF1 [3]; CRBN+/+ cells with overexpression of GSPT1
  Degradation of GSPT1 and eRF1: reduces this degradation effect
[4]; KG1, DF15, AML3, and 293FT
  Sensitivity to the compound: exhibit different levels of sensitivity to Compound C
[4]; cancer cell lines of FIG. 21
  Order in time of compound-induced ER stress and apoptosis: Compound C-induced ER stress precedes Compound C-induced apoptosis
PERK pathway of UPR
  RNA level of ATF4, ATF3, DDIT3, PPP1R15A, and GADD45A normalized with GAPDH: induces expression of ATF4, ATF3, DDIT3, PPP1R15A, and GADD45A
[5]; 293FT CRBN+/+ cells, 1 nM or 10 nM
  Degradation of GSPT1: induces degradation of GSPT1 in CRBN+/+ cells
[5]; 293FT HEK cells
  Cellular components in acute apoptotic cell death: are not affected
[5]; 293FT, 1 nM or 10 nM
  Immunoreactivity of BIP antibody that binds to BIP amino-terminal region: is not affected
[5]; 293FT, 1 nM or 10 nM, dose dependent
  Immunoreactivity of KDEL antibody and BIP carboxyl-terminus (BIP-CT) antibody: dramatically decreased
[6]; KG1 (FIG. 12A)
  Anti-proliferative effect: exhibited anti-proliferative effect
[6]; KG1, GSPT1 downregulated by shGSPT1-1 or shGSPT1-3
  Anti-proliferative effect: the anti-proliferative effect increased
[7]
  Degradation of GSPT1/2: restores Compound C-induced degradation of GSPT1/2
[8]
  Degradation of IKZF1/3: restores both lenalidomide- and Compound C-induced degradation of IKZF1/3
